# Assay results as given in patent US4950676A, “Amino-esters of dihydropyridines, and their use as circulatory agents for treating ischaemic heart diseases” (Bayer Aktiengesellschaft, priority 1986, dated 1990).
# Columns and labels:
# [1] = system: isolated aortic ring; assay: contraction of isolated rabbit aortic ring stimulated by KCl depolarization (calcium-antagonistic action); details: Oryctolagus cuniculus, isolated aortic ring from rabbits, read-out: IC50 a (active compound concentration at which the contraction of the aortic ring is inhibited by 50%)
# Text: (§1) The specific calcium-antagonistic action of the compounds according to the invention is examined in a test on isolated rabbit vessels (aorta). In this test, contractions of the vascular muscle are caused in vitro by stimulation with KCl or by noradrenaline. KCl causes contractions due to the depolarization-dependent inwards flow of calcium ions.
# (§2) These contractions are inhibited by calcium-antagonistic drugs as a function of the dose. Noradrenaline causes contractions by stimulation of the vascular alpha-receptors and the resulting release of calcium ions from the intracellular stores. The noradrenaline-induced contractions are not inhibited by specific calcium antagonists. In contrast, antagonists of the alpha-adrenoreceptors inhibit only the noradrenaline-induced contraction.
# (§3) Table 1: Active compound concentration at which the contraction of the aortic ring is inhibited by 50% (IC50)
# (§4) Isolated aortic ring from rabbits, stimulated
# (a) by KCl depolarization or […]
# [2] = system: isolated aortic ring; assay: contraction of isolated rabbit aortic ring stimulated by noradrenaline (alpha-receptor); details: Oryctolagus cuniculus, isolated aortic ring from rabbits, read-out: IC50 b (active compound concentration at which the contraction of the aortic ring is inhibited by 50%)
# Text: as §1, §2, §3, §4
# [3] = system: hypertensive rats; assay: arterial blood pressure of conscious spontaneously hypertensive rats (tail cuff) after oral administration; format: in vivo, rat (spontaneously hypertensive rats of the Okamoto strain); details: Rattus norvegicus, peroral, read-out: ED20 (reduction in blood pressure in hypertensive rats by 20 mm Hg)
# Method: The compounds according to the invention are also active after oral administration. The arterial blood pressure of conscious rats with hypertension of genetic origin ("spontaneously hypertensive rats" of the Okamoto strain) is measured bloodlessly with a "tail cuff" at defined intervals of time after administration of the substance. The substances to be tested are suspended in a Tylose suspension and administered intragastrally ("orally") in various doses by means of a stomach tube. The compounds according to the invention reduce the arterial blood pressure of hypertensive rats in a clinically relevant dosage (see Table 3).
# Table 3: Reduction in blood pressure in hypertensive rats by 20 mm Hg (ED20)
# [4] = system: anaesthetized cats; assay: vein volume of an extremity by plethysmography with simultaneous arterial blood pressure recording in anaesthetized cats; format: in vivo, cat; details: Felis catus, iv; anaesthetized cats (ketamine), i.v., in comparison with the reference sodium nitroprusside; read-out: Dose giving significant increase in vein capacity
# Method: The vein volume of an extremity is measured by plethysmography on anaesthetized cats (ketamine). The arterial blood pressure is also recorded at the same time. Calcium-antagonistic DHP derivatives known hitherto reduce the arterial blood pressure and reduce the vein volume by reflectory vein constriction.
# Table 2: Significant increase in vein capacity in anaesthetized cats in comparison with the reference active substance sodium nitroprusside.
# [5] = system: anaesthetized cats; details: statement on known substances; in words; cited from earlier work
SMILES,IC50 [1] [µg/mL],IC50 [2] [µg/mL],ED (20 mm Hg) [3] [mg/kg],minimal effective dose [4] [mg/kg],vein volume (known substances) [5]
"COC(=O)C1=C(C)NC(C)=C(C(=O)OCCCCCCNCCN(Cc2ccccc2)C(C)COc2ccccc2)C1c1cccc([N+](=O)[O-])c1 (stereo not drawn) [Example 1, 3-Methyl 5-{6-[2-[N-benzyl-N-(2-phenoxy-1-methylethyl)amino]ethylamino]hexyl}1,4-dihydro-2,6-dimethyl-4-(3-nitrophenyl)-pyridine-3,5-dicarboxylate]",0.23,> 10,–,–,–
"COC(=O)C1=C(C)NC(C)=C(C(=O)OCCCCCCN(CCN(Cc2ccccc2)C(C)COc2ccccc2)CCN(Cc2ccccc2)C(C)COc2ccccc2)C1c1cccc([N+](=O)[O-])c1 (stereo not drawn) [Example 2, 3-Methyl 5-{6-[bis-[2-[N-benzyl-N-(2-phenoxy-1-methylethyl)amino]ethyl]amino]hexyl}1,4-dihydro-2,6-dimethyl-4-(3-nitrophenyl)-pyridine-3,5-dicarboxylate]",0.9,3,–,–,–
"CC1=C(C(=O)OCCNCCN(Cc2ccccc2)C(C)COc2ccccc2)C(c2cccc([N+](=O)[O-])c2)C(C(=O)OC(C)C)=C(C)N1 (stereo not drawn) [Example 3, 3-Isopropyl 5-{2-[2-[N-benzyl-N-(2-phenoxy-1-methylethyl)amino]ethylamino]ethyl}1,4-dihydro-2,6-dimethyl-4-(3-nitrophenyl)pyridine-3,5-dicarboxylate]",0.23,> 10,–,–,–
"CC1=C(C(=O)OCCN(CCN(Cc2ccccc2)C(C)COc2ccccc2)CCN(Cc2ccccc2)C(C)COc2ccccc2)C(c2cccc([N+](=O)[O-])c2)C(C(=O)OC(C)C)=C(C)N1 (stereo not drawn) [Example 4, 3-Isopropyl 5-(2-[bis-[2-[N-benzyl-N-(2-phenoxy-1-methylethyl)amino]ethyl]amino]ethyl}1,4-dihydro-2,6-dimethyl-4-(3-nitrophenyl)-pyridine-3,5-dicarboxylate]",0.4,5,–,–,–
COC(=O)C1=C(C)NC(C)=C(C(=O)OCCNC2CCN3CCc4c(ccc(OC)c4OC)C3C2)C1c1cccc([N+](=O)[O-])c1 (stereo not drawn) [Example 6],0.26,0.36,1,–,–
"COc1ccc2c(c1OC)CCN1CCC(NCCCOC(=O)C3=C(C)NC(C)=C(C(=O)OC(C)C)C3c3cccc([N+](=O)[O-])c3)CC21 (stereo not drawn) [Example 7, 3-Isopropyl 5-[3-(1,3,4,6,7,11b-hexahydro-8,9-dimethoxy-2H-benzo[a]quinolizin-2-yl-amino)propyl]1,4-dihydro-2,6-dimethyl-4-(3-nitrophenyl)pyridine-3,5-dicarboxylate]",0.5,1.4,31.5,–,–
"COc1ccc2c(c1OC)CCN1CCC(NCCOC(=O)C3=C(C)NC(C)=C(C(=O)OC(C)C)C3c3cccc([N+](=O)[O-])c3)CC21 (stereo not drawn) [Example 8, 3-Isopropyl 5-[2-(1,3,4,6,7,11b-hexahydro-8,9-dimethoxy-2H-benzo[a]quinolizin-2-yl-amino)ethyl]1,4-dihydro-2,6-dimethyl-4-(3-nitrophenyl)pyridine-3,5-dicarboxylate]",0.3,1.6,31.5,–,–
"COc1ccc2c(c1)CCN1CCC(NCCOC(=O)C3=C(C)NC(C)=C(C(=O)OC(C)C)C3c3cccc([N+](=O)[O-])c3)CC21 (stereo not drawn) [Example 9, 3-Isopropyl 5-[2-(1,3,4,6,7,11b-hexahydro-9-methoxy-2H-benzo[a]quinolizin-2-yl)amino]ethyl 1,4-dihydro-2,6-dimethyl-4-(3-nitrophenyl)pyridine-3,5-dicarboxylate]",–,–,–,1,–
"COC(=O)C1=C(C)NC(C)=C(C(=O)OCCN(C)CC2COc3ccccc3O2)C1c1cccc([N+](=O)[O-])c1 (stereo not drawn) [Example 11, 3-Methyl 5-{2-[N-(1,4-benzodioxan-2-yl-methyl)-N-methylamino]ethyl}1,4-dihydro-2,6-dimethyl-4-(3-nitrophenyl)pyridine-3,5-dicarboxylate]",0.23,0.18,3,0.1,–
"CC1=C(C(=O)OCCNCC2COc3ccccc3O2)C(c2cccc([N+](=O)[O-])c2)C(C(=O)OC(C)C)=C(C)N1 (stereo not drawn) [Example 12, 3-Isopropyl 5-[2-(1,4-benzodioxan-2-yl-methylamino)ethyl]1,4-dihydro-2,6-dimethyl-4-(3-nitrophenyl)pyridine-3,5-dicarboxylate]",0.016,0.4,–,0.1,–
"COC(=O)C1=C(C)NC(C)=C(C(=O)OCCNCC2COc3ccccc3O2)C1c1cccc([N+](=O)[O-])c1 (stereo not drawn) [Example 13, 3-Methyl 5-[2-(1,4-benzodioxan-2-yl-methylamino)ethyl]1,4-dihydro-2,6-dimethyl-4-(3-nitrophenyl)pyridine-3,5-dicarboxylate]",0.08,0.7,3,–,–
Cc1ccc(N(CC2=NCCN2)c2cccc(O)c2)cc1 [phentolamine],–,–,–,–,increase in the vein volume
COC(=O)[C@@H]1[C@H]2C[C@H]3c4[nH]c5ccccc5c4CCN3C[C@@H]2CC[C@@H]1O [yohimbine],–,–,–,–,increase in the vein volume
